Publication PMC3879379, “Gold(III)-Dithiocarbamato Peptidomimetics in the Forefront of the Targeted Anticancer Therapy: Preclinical Studies against Human Breast Neoplasia” (PLoS ONE, 2014)
Read-outs that look alike come from different tables or passages of the source.

Key:
MDA-MB-231 cells [1] = assay: Cellular morphology (phase contrast imaging); type: cell-based, human; conditions: MDA-MB-231, 24 h
Source text: A Zeiss (Thornwood, NY) Axiovert 25 microscope was used for cellular morphology microscopic imaging with phase contrast.

[2] = molecular target: T1, proteasomal CT-like activity (Homo sapiens, UniProt P28074); assay: Proteasomal CT-like activity in xenograft tumor tissue; type: in vivo, female athymic nude mice; conditions: xenograft tumors, 1 mg kg^−1 d^−1, after 27 days of treatment
T1 construct: from tissue; host or cells: MDA-MB-231 xenograft tumour tissue from female athymic nude mice
T1 sequence (P28074 60-263): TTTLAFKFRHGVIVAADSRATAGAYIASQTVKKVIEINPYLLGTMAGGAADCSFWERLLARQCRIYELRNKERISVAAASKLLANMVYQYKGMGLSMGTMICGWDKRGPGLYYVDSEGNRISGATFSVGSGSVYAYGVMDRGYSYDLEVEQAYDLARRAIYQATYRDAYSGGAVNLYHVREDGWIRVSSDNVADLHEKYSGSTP
Procedure: (§1) Seven-week-old female athymic nude mice were purchased from Harlan Laboratories (Indianapolis, USA) and housed in accordance with protocols approved by the Institutional Laboratory Animal Care and Use Committee of Wayne State University. Human breast cancer MDA-MB-231 cells suspended in 0.1 mL of serum-free DMEM/F12 cell growth medium were inoculated subcutaneously (s.c.) into the right flank of each mouse. When tumors reached a volume of around 115 mm^3, the mice were randomly allocated into three groups (seven mice per group) and treated five days a week by s.c. injection of either vehicle [1∶1∶1 v/v PBS, DMSO, Cremophore/ethanol (1∶4)] or medium containing 1.0 mg/kg of AuD6 or AuD8. Tumor length (L) and width (W) were measured every other day using a caliper, and tumor volumes were evaluated according to the standard formula (π ⋅ L ⋅ W^2)/6. Mouse weights were monitored weekly. Four mice per group were sacrificed after 27 days of treatment, or when tumors reached ∼1,800 mm^3, and the remaining three mice per group were sacrificed after 13 days to observe any early effects of treatments. The tumors were collected and weighed. Tumor tissues were used to measure proteasome inhibition and caspase-3 activation by enzymatic activity assays and by Western blot analysis.

[3] = molecular target: T2, Purified human 20S proteasome (Homo sapiens, UniProt P28072+P28074+Q99436); assay: Proteasome activity assay on purified 20S proteasome (fluorogenic substrates); type: biochemical; conditions: 2 h incubation
T2 construct: purchased Boston Biochem (Boston, MA)
Procedure: Purified human 20S proteasome (0.5 nM) was incubated in triplicate with three different proteasomal fluorogenic substrates (20 µM) and each compound (dissolved in DMSO) at various concentrations ranging from 0.1 to 10 µM (or an equivalent volume of solvent DMSO as a control) in 100 µL of assay buffer [20 mM Tris-HCl (pH 7.5)].

MDA-MB-231 xenografts [4] = assay: Immunohistochemical p27 and TUNEL staining of tumor samples; type: in vivo, female athymic nude mice; conditions: xenograft tumors, 1 mg kg^−1 d^−1
Procedure: IHC was performed using a previously reported protocol. Briefly, tumor samples were paraffin-embedded by the Pathology Core at Karmanos Cancer Institute (Detroit, MI, USA). Samples were then cut and stained for p27 or TUNEL by the BioBank at William Beaumont Hospital (Royal Oak, MI, USA). Anti-p27 (VP-P951) was from Vector Laboratories (Burlingame, CA, USA) and was used at a 1∶30 dilution followed by detection by DAKO. Samples were counterstained with DAB/Hematoxylin. TUNEL staining was performed using anti-digoxigenin and peroxidase substrate, followed by counterstaining with methyl green. In both cases, brown colored cells were considered positive.

[5] = molecular target: T3, proteasome of MDA-MB-231 cell extract (Homo sapiens, UniProt P28072+P28074+Q99436); assay: Proteasome activity assay on MDA-MB-231 whole-cell extract; type: biochemical; conditions: 2 h incubation
T3 construct: endogenous in cells; host or cells: MDA-MB-231 whole-cell extract
T3 sequence (P28074 60-263): T1 sequence (P28074 60-263)
T3 sequence (P28072 1-239): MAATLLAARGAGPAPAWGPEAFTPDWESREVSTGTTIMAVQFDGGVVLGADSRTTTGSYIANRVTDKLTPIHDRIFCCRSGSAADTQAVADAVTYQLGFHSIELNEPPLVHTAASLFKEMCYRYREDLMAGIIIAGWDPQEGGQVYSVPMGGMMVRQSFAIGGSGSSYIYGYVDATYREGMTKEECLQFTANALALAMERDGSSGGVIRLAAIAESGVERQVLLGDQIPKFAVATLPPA
T3 sequence (Q99436 44-277): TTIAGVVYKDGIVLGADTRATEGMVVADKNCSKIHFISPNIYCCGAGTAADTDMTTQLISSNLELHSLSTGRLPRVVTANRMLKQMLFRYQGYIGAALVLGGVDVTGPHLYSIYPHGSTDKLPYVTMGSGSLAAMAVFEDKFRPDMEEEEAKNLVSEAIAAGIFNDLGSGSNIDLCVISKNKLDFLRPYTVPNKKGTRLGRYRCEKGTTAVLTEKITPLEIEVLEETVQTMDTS
Procedure: Likewise, MDA-MB-231 whole-cell extract (10 µg/well) was incubated in quadruplicate with each complex and each fluorogenic substrate in 100 µL of assay buffer [20 mM Tris-HCl (pH 7.5)]. Fluorescence data were acquired after 1 hour and 2 hours incubation at 37°C. The whole-cell extract was prepared as described elsewhere.

p27 = assay: Western blot of p27 in treated cells; type: cell-based, human; conditions: MDA-MB-231, 24 h
Procedure: MDA-MB-231 cells were grown to around 75% confluence, treated with gold-based complexes or solvent as a control, harvested, and lysed. Cell lysates (30 µg/lane) were separated by SDS-PAGE and transferred to a nitrocellulose membrane. After blocking of non-specific binding (5% non-fat dry milk in Tris-Buffered Saline with Tween 20-TBST), membranes were incubated overnight at 4°C with primary antibodies, followed by washing with TBST and incubation for 2 h with secondary antibodies. Bands of interest were visualized using HyGLO Chemiluminescent HRP Antibody detection reagent, HyBlot Chemiluminescence films (Denville Scientific Inc.; Metuchen, NJ) and a HOPE Micro-MAX film processor.

MDA-MB-231 xenografts [6] = assay: Human breast tumor xenograft growth; type: in vivo, female athymic nude mice; conditions: 1.0 mg kg^−1 d^−1 s.c.
Procedure: as §1, with “analysis. […]” for “analysis.”

MDA-MB-231 cells [7] = assay: Annexin-V FITC/PI apoptosis assay (flow cytometry); type: cell-based, human; conditions: MDA-MB-231, 20 µM; for cells in early stage apoptosis: 16 or 24 h (time not specified)
Procedure: Apoptosis indexes were measured using the Annexin-V fluorescein isothiocyanate (FITC) apoptosis detection kit I from by BD Pharmingen. MDA-MB-231 cells were grown to around 75% confluence, treated with gold-based complexes (20 µM) or solvent as a control for 16 or 24 h, harvested by means of a scraper and centrifugation. Cell pellets were washed twice with ice cold PBS and cells were then resuspended in 1× binding buffer at a concentration of 1•10^6 cells/mL. 100 µL of the suspension was then transferred to a 5 mL flow cytometry tube and 5 µL FITC Annexin V and 5 µL PI for double stained samples (either 5 µL of FITC Annexin V or 5 µL of PI for controls) were added. Mixtures were gently vortexed and incubated for 15 min at RT in the dark followed by addition of 400 µL 1× binding buffer to each tube. Then, analysis by flow cytometry occurred within 1 h at the Microscopy, Imaging and Cytometry Resources (MICR) Core at the Karmanos Cancer Institute, Wayne State University. Data (Figure 3) are presented as density plots of Annexin-V (x-axis) and propidium iodide (PI, y-axis) stainings. Unstained cells, cells stained with either PI or FITC Annexin-V only, and untreated cells stained with both PI and Annexin-V were used to set up compensation and quadrants. The excitation wavelength was 488 nm and the detection wavelengths were 530±15 and 620±21 nm for Annexin V and PI, respectively. Cells staining negative for both markers were considered viable since Annexin V and PI are both cell membrane impermeable while cells staining positive for both markers were considered in late apoptosis. Cells staining positive for Annexin only were considered in early apoptosis whereas cells staining positive for PI only were considered dead by a necrotic pathway. Percentages of viable, apoptotic, and necrotic cells are reported in the corner of each quadrant (Figure 3).

MDA-MB-231 cells [8] = assay: MTT assay with ROS scavenger Trolox (pretreatment or co-treatment); type: cell-based, human; conditions: for reduction of IC50 by co-treatment with Trolox: MDA-MB-231, 24 h co-treatment with Trolox 100 µM
Procedure: In order to investigate whether cell death is affected by free radicals produced in situ by our compounds, cells were seeded in quadruplicate and treated with both complexes and Trolox. We first pretreated cells for 1 h with Trolox at 100 µM and after changing medium, treated cells with compounds and incubated for an additional 24 h. Alternatively, we co-treated cells for 24 h with both compounds and Trolox (100 µM), followed by MTT assay.

MDA-MB-231 cells [9] = assay: MTT cell proliferation assay; type: cell-based, human; conditions: for IC50: read-out: IC50 (MTT, inhibition of cell proliferation)
Procedure: Human breast cancer MDA-MB-231 cells were obtained from American Type Culture Collection (Manassas, VA) and grown in DMEM/F12 supplemented with 10% fetal bovine serum, 1 mM sodium pyruvate, 10 mM HEPES, 100 U/mL penicillin and 100 µg/mL streptomycin. Cells were grown in a humidified incubator with 5% CO2 at 37°C. Cells were seeded in octuplicate in 96-well plates and grown to 70%–80% confluence, followed by treatment with DMSO (control) or each compound (dissolved in DMSO) in fresh medium at the indicated concentrations. After 24 or 72 hours incubation at 37°C, inhibition of cell proliferation was measured by MTT assay, as previously described. The cytotoxicity of the compounds was quantified as the percentage of cells surviving relative to untreated cells. Four MTT tests for each compound were performed in order to evaluate the corresponding IC50 values.

[10] = read-out: IC50 Chymotrypsin-like activity
[11] = read-out: IC50 PGPH-like activity
[12] = read-out: IC50 Trypsin-like activity

Row | SMILES | concentration at which apoptotic morphological changes were observed (MDA-MB-231 cells [1]) | inhibition of the proteasomal CT-like pocket in tumor tissue [2] | IC50 [3, 10] | IC50 [3, 11] | IC50 [3, 12] | TUNEL positive (staining of tumor) (MDA-MB-231 xenografts [4]) | p27 positive (immunohistochemical staining of tumor) (MDA-MB-231 xenografts [4]) | IC50 [5, 10] | IC50 [5, 11] | IC50 [5, 12] | cells in early stage apoptosis (MDA-MB-231 cells [7]) | apoptotic cells at late stage (upper right quadrant) (MDA-MB-231 cells [7]; 24 h) | reduction of IC50 by co-treatment with Trolox (MDA-MB-231 cells [8]) | also measured
1 | C[N+](CC(=O)NC(C)(C)C(=O)OC(C)(C)C)=C1[S][Au-]([Br])([Br])[S]1 [AuD8, [Au^IIIBr2(dtc-Sar-AA-O(t-Bu))]] | 10 µM | 33% | 290 ± 70 nM | 540 ± 80 nM | 610 ± 20 nM | ~30% | ~95% | 2900 ± 600 nM | 4500 ± 900 nM | 5700 ± 100 nM | 7–9% | 74.1% | very little effect | concentration inducing p27 accumulation (p27): below 1 µM; inhibition of tumor growth compared to control (MDA-MB-231 xenografts [6]; 27 days, p<0.05): 53%; tumor volume at end of treatment (MDA-MB-231 xenografts [6]; day 27): 849±79 mm^3; apoptotic cells at late stage (upper right quadrant) (MDA-MB-231 cells [7]; 16 h): 62.9%
2 | Cc1c(C)c2c(c(C)c1O)CCC(C)(C(=O)O)O2 (centres unmarked) [Trolox, reference compound] | – | – | – | – | – | – | – | – | – | – | – | – | – | inhibition at 100 µM (MDA-MB-231 cells [8]; Homo sapiens, MDA-MB-231, Trolox 100 µM, 24 h treatment, read-out: inhibition of tumor cell growth by Trolox alone): ~25%
3 | N.N.[Cl][Pt][Cl] [cisplatin, cis-diammineplatinum(II) dichloride] | – | – | – | – | – | – | – | – | – | – | – | – | – | growth-inhibitory effect (MDA-MB-231 cells [9]; MDA-MB-231, 100 µM, 24 h treatment): around 40%; IC50 (MTT, inhibition of cell proliferation) (MDA-MB-231 cells [9]; MDA-MB-231, 24 h treatment): not reached; IC50 (MDA-MB-231 cells [9]; MDA-MB-231, 24 h treatment): > 100000 nM
4 | C[N+](CC(=O)NCC(=O)OC(C)(C)C)=C1[S][Au-]([Br])([Br])[S]1 [AuD6, [Au^IIIBr2(dtc-Sar-AA-O(t-Bu))]] | 20 µM | 14% | 420 ± 30 nM | 490 ± 90 nM | 510 ± 70 nM | ~75% | ~20% | 3300 ± 400 nM | 2300 ± 800 nM | 3000 ± 900 nM | 7–9% | 49% | approximately 3 fold | IC50 (MDA-MB-231 cells [9]; MDA-MB-231, 72 h treatment): 13000 ± 1000 nM
